± gives the expanded uncertainty stated by the source.
Key:
[1] = xn = mol fraction of the nth substance listed; details: x2 = 0
[2] = refractive index (Na D-line) (dimensionless); xn = mol fraction of the nth substance listed; details: 100.5 kPa, Liquid, Standard Abbe refractometry, x2 = 0
[3] = for mass density: 101.33 kPa, Liquid
[4] = refractive index (Na D-line) (dimensionless); details: 101.33 kPa, Liquid, Standard Abbe refractometry

surface tension liquid-gas ([3]; 288.15 K) [mN/m] | surface tension liquid-gas ([3]; 298.15 K) [mN/m] | mass density ([3]; 298.15 K) [kg/m3] | surface tension liquid-gas ([3]; 308.15 K) [mN/m] | surface tension liquid-gas ([3]; 318.15 K) [mN/m] | refractive index ([4]; 288.15 K) | refractive index ([4]; 298.15 K) | refractive index ([4]; 308.15 K) | refractive index ([4]; 318.15 K) | Compound | surface tension liquid-gas ([1]; 288.15 K) [mN/m] | surface tension liquid-gas ([1]; 298.15 K) [mN/m] | surface tension liquid-gas ([1]; 308.15 K) [mN/m] | surface tension liquid-gas ([1]; 318.15 K) [mN/m] | refractive index ([2]; 288.15 K) | refractive index ([2]; 298.15 K) | refractive index ([2]; 308.15 K) | refractive index ([2]; 318.15 K)
– | – | – | – | – | – | – | – | – | CCO [ethanol] + CCCCCC(=O)OCC | 23 ± 0.6 | 22.3 ± 0.6 | 21.5 ± 0.6 | 20.6 ± 0.6 | 1.36333 ± 0.00031 | 1.35941 ± 0.00031 | 1.35531 ± 0.00031 | 1.35148 ± 0.00031
– | – | – | – | – | – | – | – | – | CCO [ethanol] + CC(=O)OCCC(C)C | 23 ± 0.4 | 22.3 ± 0.4 | 21.5 ± 0.4 | 20.6 ± 0.4 | 1.36333 ± 0.00031 | 1.35941 ± 0.00031 | 1.35531 ± 0.00031 | 1.35148 ± 0.00031
25.4 ± 0.4 | 24.3 ± 0.4 | 867.91 ± 0.45 | 23.4 ± 0.4 | 22.4 ± 0.4 | 1.40288 ± 0.00034 | 1.39836 ± 0.00034 | 1.39365 ± 0.00034 | 1.38895 ± 0.00034 | CC(=O)OCCC(C)C [3-methylbutyl ethanoate] | – | – | – | – | – | – | – | –
– | – | – | – | – | – | – | – | – | CCO [ethanol] + CCCCCCCC(=O)OCC | 23 ± 0.6 | 22.3 ± 0.6 | 21.5 ± 0.6 | 20.6 ± 0.6 | 1.36333 ± 0.00031 | 1.35941 ± 0.00031 | 1.35531 ± 0.00031 | 1.35148 ± 0.00031
27.2 ± 0.6 | 26.4 ± 0.6 | 862.15 ± 0.41 | 25.5 ± 0.6 | 24.7 ± 0.6 | 1.41991 ± 0.00033 | 1.4156 ± 0.00033 | 1.41137 ± 0.00033 | 1.40702 ± 0.00033 | CCCCCCCC(=O)OCC [ethyl octanoate] | – | – | – | – | – | – | – | –
– | – | – | – | – | – | – | – | – | CCO [ethanol] + CCCC(=O)OCCC(C)C | 23 ± 0.6 | 22.3 ± 0.6 | 21.5 ± 0.6 | 20.6 ± 0.6 | 1.36333 ± 0.00031 | 1.35941 ± 0.00031 | 1.35531 ± 0.00031 | 1.35148 ± 0.00031
25.7 ± 0.6 | 24.7 ± 0.6 | 858.69 ± 0.44 | 24 ± 0.6 | 23.1 ± 0.6 | 1.41259 ± 0.00034 | 1.40815 ± 0.00034 | 1.40374 ± 0.00034 | 1.39927 ± 0.00034 | CCCC(=O)OCCC(C)C [3-methylbutyl butanoate] | – | – | – | – | – | – | – | –
35.7 ± 0.7 | 34.6 ± 0.7 | 1041.42 ± 0.14 | 33.3 ± 0.7 | 32.5 ± 0.7 | 1.5076 ± 0.00032 | 1.50328 ± 0.00032 | 1.49863 ± 0.00032 | 1.49391 ± 0.00032 | CCOC(=O)c1ccccc1 [ethyl benzoate] | – | – | – | – | – | – | – | –
26.4 ± 0.6 | 25.4 ± 0.6 | 866.29 ± 0.21 | 24.5 ± 0.6 | 23.6 ± 0.6 | 1.4095 ± 0.00032 | 1.40504 ± 0.00032 | 1.40055 ± 0.00032 | 1.39597 ± 0.00032 | CCCCCC(=O)OCC [ethyl hexanoate] | – | – | – | – | – | – | – | –
– | – | – | – | – | – | – | – | – | CCO [ethanol] + CCOC(=O)Cc1ccccc1 | 23 ± 0.6 | 22.3 ± 0.6 | 21.5 ± 0.6 | 20.6 ± 0.6 | 1.36333 ± 0.00031 | 1.35941 ± 0.00031 | 1.35531 ± 0.00031 | 1.35148 ± 0.00031
– | – | – | – | – | – | – | – | – | CCO [ethanol] + CCOC(=O)c1ccccc1 | 23 ± 0.6 | 22.3 ± 0.6 | 21.5 ± 0.6 | 20.6 ± 0.6 | 1.36333 ± 0.00031 | 1.35941 ± 0.00031 | 1.35531 ± 0.00031 | 1.35148 ± 0.00031

Compound | surface tension liquid-gas ([3]; 288.15 K) [mN/m] | surface tension liquid-gas ([3]; 298.15 K) [mN/m] | mass density ([3]; 298.15 K) [kg/m3] | surface tension liquid-gas ([3]; 308.15 K) [mN/m] | surface tension liquid-gas ([3]; 318.15 K) [mN/m] | refractive index ([4]; 288.15 K) | refractive index ([4]; 298.15 K) | refractive index ([4]; 308.15 K) | refractive index ([4]; 318.15 K) | surface tension liquid-gas ([1]; 288.15 K) [mN/m] | surface tension liquid-gas ([1]; 298.15 K) [mN/m] | surface tension liquid-gas ([1]; 308.15 K) [mN/m] | surface tension liquid-gas ([1]; 318.15 K) [mN/m] | refractive index ([2]; 288.15 K) | refractive index ([2]; 298.15 K) | refractive index ([2]; 308.15 K) | refractive index ([2]; 318.15 K)
CCOC(=O)Cc1ccccc1 [ethyl phenylacetate] | 35.9 ± 0.7 | 34.6 ± 0.7 | 1026.96 ± 0.35 | 33.5 ± 0.7 | 32.8 ± 0.7 | 1.49971 ± 0.00034 | 1.49513 ± 0.00034 | 1.49063 ± 0.00034 | 1.48583 ± 0.00034 | – | – | – | – | – | – | – | –
CCO [ethanol] | 23 ± 0.4 | 22.3 ± 0.4 | 785 ± 0.24 | 21.5 ± 0.4 | 20.6 ± 0.4 | 1.36333 ± 0.00031 | 1.35941 ± 0.00031 | 1.35531 ± 0.00031 | 1.35148 ± 0.00031 | – | – | – | – | – | – | – | –

Source: the NIST ThermoML archive (doi:10.1021/je0601208)
